Measurements taken from patent US20260216232A1, “SEVUPARIN FOR THE TREATMENT OF CHRONIC KIDNEY DISEASE” (Modus Therapeutics AB, priority 2022, published 2026).
Read-outs that look alike come from different tables or passages of the source. Marks after values point to notes of the source that are not given here.

What was measured:
mouse kidneys [1] = settings: 3 weeks treatment, 20x magnification, compared to kidneys without sevuparin
Experimental: (§1) C57BL/6J male mice were exposed to ARD pretreatment for 9 weeks followed by 3 weeks of randomized allocation to treatments as defined below still with maintained ARD exposure. One group of mice was given normal diet (no ARD) for the entire experiment, as healthy control. • a) Treatment with control: mice treated with PBS s.c. every day for 3 weeks. • b) Treatment with sevuparin: mice treated with 10 mg/kg Sevuparin s.c. every day for 3 weeks.

factor Xa = settings: definition of sevuparin; no test described; cited from earlier work
[2] = test system: Kidney Disease and Anemia of Kidney Disease (KD) Mouse Model; assay: Anemia of CKD mouse model (adenine rich diet), Example 3: blood and serum analysis, body weight; assay type: in vivo, C57BL/6J male mice
From the text: (§2) All experimental procedures were approved by the Animal Care and Use Committee of University of Brescia. All animals were maintained on normal diet (“Chow” or Standard diet, 4RF21, obtained from Mucedola s.r.l) if not specified otherwise as part of the “Anemia of Chronic Kidney Disease (CKD) mouse model” experiment as described below.
(§3) Animals. The C57BL/6J male mice were purchased from Envigo RMS S.r.l.
(§4) Kidney damage, kidney disease and anemia were induced by an adenine high phosphorus diet denoted as “adenine rich diet” (ARD) (0.2% Adenine; 0.9% Phosphorus; 0.6% Calcium; 20% Casein; Cod. S1102-E750 (purchased from Charles River, Manufacturer: Ssniff Spezialdiäten GmbH).
(§5) ARD was fed to C57BL/6J male mice having reached an age of five-weeks. […] All animals were maintained on ARD or normal diet (Standard diet, 4RF21, Mucedola s.r.l), at timings and extents described in detail for each experiment below. Groups of mice were also kept under normal diet (Standard diet) as healthy control group, for each experiment. Mice had access to food and diet ad libitum.
(§6) Adenine rich diet (ARD) (0.2% Adenine; 0.9% Phosphorus; 0.6% Calcium; 20% (Ssniff Spezialdiäten GmbH), sevuparin 10 mg/kg (Opocrin S.p.A., Apotek Produktion & Laboratorier AB, subcutaneously administered, sc), erythropoietin (EPO, Darbepoietin alfa, Aranesp, AMGEN INC.) intraperitoneally adminstered, ip)
(§7) The hematological parameters hemoglobin (Hb) and hematocrit (Ht) were analyzed using the Hemo Vet Instrument (Infratech) by collecting a single drop of blood from the dorsal pedal vein. The animals weight were monitored weekly in the morning at the following time points of treatment: At start of treatment (P0); after one week of treatment (T1); after two weeks of treatment (T2); after three weeks of treatment (T3); after four weeks of treatment (T4); after five weeks of treatment (T5); after six weeks of treatment (T6); after seven weeks of treatment (T7); after eight weeks of treatment (T8); and after nine weeks of treatment (T9).
(§8) Reticulocyte hemoglobin content (Ret-He), serum hepcidin and serum creatinine (analysis performed by Izler Institute) were analyzed at the end of each experiment)
(§9) Mice were sacrificed at the indicated time points and blood and kidneys were collected for analysis at the end-point of each experiment.
(§10) At the end-point, mouse serum hepcidin was quantified using ELISA kit (Cod. SKU #HMC-001; Intrinsic LifeScience).
(§11) Serum creatinine and blood Reticulocytes-hemoglobin (Ret-He) were analyzed by IZLER Institute (Istituto Zooprofilattico Sperimentale della Lombardia e Dell′Emilia Romagna), using standard procedures.
ARD Pretreatment for 5.5 Weeks Followed by 3 or 6 Weeks Treatment with Control, Sevuparin, Erythropoietin (EPO), or a Combination of EPO and Sevuparin
C57BL/6J male mice were exposed to ARD pretreatment for 5.5 weeks followed by either 3 or 6 weeks of randomized allocation to treatments as defined below still with maintained ARD exposure. One group of mice was given normal diet (no ARD) for the entire experiment, as healthy control. • a) Treatment control: mice treated with PBS s.c. every day for 3 and 6 weeks respectively. • b) Treatment with sevuparin: mice treated with 10 mg/kg Sevuparin s.c. every day for 3 and 6 weeks respectively. • c) Treatment with EPO: mice treated with 50 IU EPO i.p. twice a week for 3 weeks and mice treated with 50 IU EPO i.p. twice a week for 3 weeks followed by treatment with 25 IU EPO i.p. once a week for the subsequent 3 weeks. • d) Treatment with EPO+sevuparin: mice treated with 10 mg/kg sevuparin s.c. every day and 50 IU EPO i.p. twice a week for 3 weeks and mice treated with 10 mg/kg sevuparin s.c. every day and 50 IU EPO i.p. twice a week for the first 3 weeks followed by treatment with 10 mg/kg sevuparin s.c. every day and 25 IU EPO i.p. once a week for the subsequent 3 weeks.

[3] = test system: Kidney Disease and Anemia of Kidney Disease (KD) Mouse Model; assay: Anemia of CKD mouse model (adenine rich diet), Example 2: blood and serum analysis, body weight; assay type: in vivo, C57BL/6J male mice
From the text: as §2, §3, §4, §5, §6, §7, §8, §9, §10, §11
ARD Pre-Treatment for 9 Weeks Followed by 2 Weeks Treatment with Either Control, Sevuparin, Erythropoietin (EPO) or a Combination of EPO and Sevuparin, Followed by 7 Weeks Recovery without ARD but with Maintained Treatments.
(§12) C57BL/6J male mice were exposed to ARD pretreatment for 9 weeks followed by 2 weeks of randomized allocation to treatments as defined below still with maintained ARD exposure, after which ARD was omitted but treatments were maintained during 7 weeks of recovery. One group of mice was given normal diet (no ARD) for the entire experiment, as healthy control. • a) Treatment with control: mice treated with PBS s.c. every day for 2+7 weeks. • b) Treatment with sevuparin: mice treated with 10 mg/kg Sevuparin s.c. every day for 2+7 weeks. • c) Treatment with […]: mice treated with 50 IU EPO i.p. twice a week for 2+7 weeks. • d) Treatment with EPO+sevuparin: mice treated with 50 IU EPO i.p. twice a week and 10 mg/kg Sevuparin s.c. every day for 2+7 weeks.
Hemoglobin (Hb), hematocrit (Ht), weigh (wt), serum-creatitine (S-crea), reticulocyte hemoglobin (Ret-He) content and serum-hepcidin (nM) was measured in the mice.

mouse kidneys [4] = assay: Example 2: macroscopic and histological status of kidneys (H&E, Sirius Red); assay type: in vivo, C57BL/6J male mice
Experimental: as §12

factor IIa = settings: definition of sevuparin; no test described; cited from earlier work
[5] = test system: Kidney Disease and Anemia of Kidney Disease (KD) Mouse Model
From the text: as §2, §3, §4, §5, §6, §7, §8, §9, §10, §11
ARD Pretreatment for 9 Weeks Followed by 3 Weeks Treatment with Either Control or Sevuparin
as §1

[6] = ARD 5.5 weeks then treatment with maintained ARD
[7] = ARD 5.5 weeks, then 3 or 6 weeks treatment with maintained ARD (time point not given), sevuparin 10 mg/kg s.c. every day, EPO 50 IU i.p. twice a week (25 IU once a week for subsequent 3 weeks), mean
[8] = 2+7 weeks treatment, compared to mice without any treatment / other treatment groups
[9] = ARD 9 weeks, then 2 weeks treatment on ARD + 7 weeks without ARD, sevuparin 10 mg/kg s.c. every day, EPO 50 IU i.p. twice a week, mean
[10] = 3 weeks treatment, compared to mice not treated with sevuparin
[11] = ARD 9 weeks, then sevuparin 10 mg/kg s.c. every day for 3 weeks with maintained ARD, mean

In the case of sevuparin, the “effect on the micrographs of the mouse kidneys (FIG. 1G)” value (mouse kidneys [1]) is listed as “positive effect”, the “antifactor Xa activity” value (factor Xa) is listed as “up to 10 IU/mg” and the “blood level of hemoglobin (Hb), in words” value [2, 6] is listed as “did not increase”. For the same substance, the “body weight (wt), in words” value [2, 6] was “did not increase”, the “hematocrit (Ht), in words” value [2, 6] was “did not increase” and the “serum level of creatinine (s-Crea), in words” value ([2]; ARD 5.5 weeks then treatment with maintained ARD, compared to mice without any treatment) was “reduced”. For the same substance, the Hb [2, 7] was 9.77^(3) g/dL, the Ht [2, 7] was 28.67^(8) % and the Ret-He [2, 7] was 14.45^(23)** pg. The S-Crea [2, 7] was 0.82^(18) mg/dL, the Wt [2, 7] was 17.60^(13) g and the “impact on the serum level of hepcidin (FIG. 3A)” value ([2]; at 3 weeks treatment) was “beneficial impact”. For the same substance, the “beneficial impact on the serum level of hepcidin vs control (FIG. 3B)” value ([2]; at 6 weeks treatment) was “no longer present”, the “serum level of hepcidin, in words” value ([3]; 2+7 weeks treatment) was “markedly reduced” and the “blood level of reticulocyte hemoglobin (Ret-HE), in words” value [3, 8] was “increased”. For the same substance, the “body weight (wt), in words” value [3, 8] was “increased”, the “hematocrit (Ht), in words” value [3, 8] was “increased” and the “serum level of creatinine (s-Crea), in words” value [3, 8] was “reduced”. The Hb [3, 9] was 9.45^(3) g/dL, the Ht [3, 9] was 27.75^(8) % and the Ret-He [3, 9] was 15.78^(23) pg. The S-Crea [3, 9] was 0.78^(18) mg/dL, the S-Hepcidin [3, 9] was 22.32^(28) nM and the Wt [3, 9] was 25.75^(13) g. For the same substance, the “kidney damage, H&E staining (FIG. 2B)” value (mouse kidneys [4]; 40x magnification, 11 weeks of adenine diet, compared to the untreated control) was “reduced the damage”, the “collagen deposits (fibrosis), Sirius Red Staining (FIG. 2B)” value (mouse kidneys [4]; 40x magnification, compared to AD 11 weeks+PBS) was “reduction of the collagen deposits” and the “physical status of the mouse kidneys, macroscopic photographs (FIG. 2A)” value (mouse kidneys [4]; compared to mouse kidneys that had not received the same therapy) was “substantially less cysts, more normal colour and a more homogenous appearance”. For the same substance, the “antifactor 11a activity” value (factor IIa) was “up to 10 IU/mg”, the “Hematocrit levels, in words” value [5, 10] was “increased” and the “Hemoglobin blood levels, in words” value [5, 10] was “increased”. For the same substance, the “blood level of reticulocyte-hemoglobin (Ret-He), in words” value [5, 10] was “increased”, the “body weight, in words” value [5, 10] was “gained body weight” and the “serum creatinine level, in words” value [5, 10] was “increased”. For the same substance, the “serum level of hepcidin, in words” value [5, 10] was “reduced”, the S-Hepcidin ([5]; ARD 9 weeks, then sevuparin 10 mg/kg s.c. every day for 3 weeks with maintained ARD, ELISA, mean) was 36.83^(18) nM and the Hb [5, 11] was 10.80^(3) g/dL. For the same substance, the Ht [5, 11] was 31.67^(6) %, the Ret-He [5, 11] was 14.33^(15) pg and the S-Crea [5, 11] was 0.73^(12) mg/dL. For the same substance, the Wt [5, 11] was 15.00^(9) g.
